# Reference: article PMC7933434, “Entropy-driven binding of gut bacterial β-glucuronidase inhibitors ameliorates irinotecan-induced toxicity” (Communications Biology, 2021)
# Values joined by “and” are separate entries in the source; they are usually repeats but may differ in a detail not shown here. Equal entries are not always repeated. Where two headings read alike, the source gives them in different places.
# Tests used:
# [1] = target: EcGUS (Escherichia coli GUS) (Escherichia coli, UniProt P05804); experiment: biochemical
# [2] = target: BdGUS (Bifidobacterium dentium GUS) (Bifidobacterium dentium, UniProt D2Q7B1); experiment: biochemical; set-up: GUS activity (hydrolysis rate of MUG) / 1/v: unit not given here; settings: for Ki: BdGUS
# EcGUS = EcGUS (Escherichia coli, UniProt P05804); experiment: Isothermal titration calorimetry, EcGUS; assay type: binding; settings: EcGUS; for Kd / ΔG / —TΔS / ΔH: 298 K
# BdGUS = BdGUS (Bifidobacterium dentium, UniProt D2Q7B1); experiment: biochemical; assay type: binding; settings: BdGUS; Tris buffer (250 mM NaCl, 20 mM Tris, pH 8.0); 298 K
# [3] = target: T1, GUS activity in live E. coli cells (Escherichia coli, UniProt P05804); experiment: GUS activity in live E. coli cells; assay type: cell-based; settings: E. coli cells (OD600 = 1.89) treated for 30 min, then GUS activity measured
# T1 construct: endogenous in cells
# Procedure: To examine if inhibitors 2–4 could inhibit GUS activity in vivo, E. coli cells (OD600 = 1.89) were treated with each of 2–4 for 30 min, after which GUS activity was measured. […]; 3, 18.6 nM; and 4, 3.69 nM (Supplementary Fig. 9a). […]. […] Additionally, to evaluate cell viability, E. coli cultures were treated with ampicillin (positive control), DMSO, or inhibitors 2–4 (100 μM) for 6 h.
# Supplementary Figure 9 Inhibitors 2–4 sho w in hi biti on ag ai n st G US acti vity in l i ve E. co li cell s. (a) GUS activity was measured in live E. coli. Af t e r E. coli were incubated with DMSO or an inhibitor ( 2–4), GUS activity was measured using 4-methylumbelliferyl-β-glucuronide as the substrate. The release of fluorescent 4-methylumbelliferone was detected at 445 nm (excitation, 345 nm). Compared with the negative c ont rol (DMSO ), […]
# […]. (b) Colony formation assay. None of the inhibitors affected bacterial growth. As a negative control, E. coli cells were incubated with ampicillin (100 μg/mL). Results are expressed as the mean of triplicate samples ± SEM.
# (1 picture or pasted object on this page, not shown here)
# [4] = [Inhibitor 1] = 6.25 nM, [MUG] 0.375 mM
# [5] = [Inhibitor 1] = 6.25 nM, [MUG] 0.75 mM
# [6] = [Inhibitor 1] = 6.25 nM, [MUG] 1.5 mM
# [7] = [Inhibitor 1] = 6.25 nM, [MUG] 3 mM
# [8] = [Inhibitor 1] = 12.5 nM, [MUG] 0.375 mM
# [9] = [Inhibitor 1] = 12.5 nM, [MUG] 0.75 mM
# [10] = [Inhibitor 1] = 12.5 nM, [MUG] 1.5 mM
# [11] = [Inhibitor 1] = 12.5 nM, [MUG] 3 mM
# [12] = [Inhibitor 1] = 25 nM, [MUG] 0.375 mM
# [13] = [Inhibitor 1] = 25 nM, [MUG] 0.75 mM
# [14] = [Inhibitor 1] = 25 nM, [MUG] 1.5 mM
# [15] = [Inhibitor 1] = 25 nM, [MUG] 3 mM
# [16] = [Inhibitor1] = 50 nM, [MUG] 0.375 mM
# [17] = [Inhibitor1] = 50 nM, [MUG] 0.75 mM
# [18] = [Inhibitor1] = 50 nM, [MUG] 1.5 mM
# [19] = [Inhibitor1] = 50 nM, [MUG] 3 mM
# [20] = Tris buffer (250 mM NaCl, 20 mM Tris, pH 8.0)
# [21] = phosphate buffer (250 mM NaCl, 20 mM KH2PO4, 100 mM Na2HPO4, pH 8.0)
# [22] = [Inhibitor 4] = 0.05 μM, [MUG] 0.08 mM
# [23] = [Inhibitor 4] = 0.05 μM, [MUG] 0.125 mM
# [24] = [Inhibitor 4] = 0.05 μM, [MUG] 0.25 mM
# [25] = [Inhibitor 4] = 0.05 μM, [MUG] 0.5 mM
# [26] = [Inhibitor 4] = 0.15 μM, [MUG] 0.08 mM
# [27] = [Inhibitor 4] = 0.15 μM, [MUG] 0.125 mM
# [28] = [Inhibitor 4] = 0.15 μM, [MUG] 0.25 mM
# [29] = [Inhibitor 4] = 0.15 μM, [MUG] 0.5 mM
# [30] = [Inhibitor 4] = 0.3 μM, [MUG] 0.08 mM
# [31] = [Inhibitor 4] = 0.3 μM, [MUG] 0.125 mM
# [32] = [Inhibitor 4] = 0.3 μM, [MUG] 0.25 mM
# [33] = [Inhibitor 4] = 0.3 μM, [MUG] 0.5 mM
# [34] = [Inhibitor 4] = 0.6 μM, [MUG] 0.08 mM
# [35] = [Inhibitor 4] = 0.6 μM, [MUG] 0.125 mM
# [36] = [Inhibitor 4] = 0.6 μM, [MUG] 0.25 mM
# [37] = [Inhibitor 4] = 0.6 μM, [MUG] 0.5 mM
# Sequence of BdGUS (Bifidobacterium dentium GUS) (D2Q7B1 1-668): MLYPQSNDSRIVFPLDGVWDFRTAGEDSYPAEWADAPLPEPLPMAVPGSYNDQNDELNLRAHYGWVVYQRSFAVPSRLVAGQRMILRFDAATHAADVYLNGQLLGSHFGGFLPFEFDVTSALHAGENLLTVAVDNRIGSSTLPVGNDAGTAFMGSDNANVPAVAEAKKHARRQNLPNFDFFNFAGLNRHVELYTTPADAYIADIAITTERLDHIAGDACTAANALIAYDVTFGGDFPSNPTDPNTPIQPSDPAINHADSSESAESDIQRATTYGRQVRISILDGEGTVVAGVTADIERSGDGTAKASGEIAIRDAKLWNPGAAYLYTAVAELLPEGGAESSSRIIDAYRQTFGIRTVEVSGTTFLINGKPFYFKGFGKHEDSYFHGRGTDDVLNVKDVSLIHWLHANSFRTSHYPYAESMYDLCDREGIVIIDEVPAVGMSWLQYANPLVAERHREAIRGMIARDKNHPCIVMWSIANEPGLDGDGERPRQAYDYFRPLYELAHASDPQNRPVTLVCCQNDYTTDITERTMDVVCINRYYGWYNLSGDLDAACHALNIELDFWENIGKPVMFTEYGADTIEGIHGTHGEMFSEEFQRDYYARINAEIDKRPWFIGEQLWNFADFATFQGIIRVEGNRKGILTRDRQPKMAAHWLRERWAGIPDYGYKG
# Sequence of BdGUS (D2Q7B1 entry or part of it): as the sequence (D2Q7B1 1-668) above
# Sequence of EcGUS (P05804 whole entry): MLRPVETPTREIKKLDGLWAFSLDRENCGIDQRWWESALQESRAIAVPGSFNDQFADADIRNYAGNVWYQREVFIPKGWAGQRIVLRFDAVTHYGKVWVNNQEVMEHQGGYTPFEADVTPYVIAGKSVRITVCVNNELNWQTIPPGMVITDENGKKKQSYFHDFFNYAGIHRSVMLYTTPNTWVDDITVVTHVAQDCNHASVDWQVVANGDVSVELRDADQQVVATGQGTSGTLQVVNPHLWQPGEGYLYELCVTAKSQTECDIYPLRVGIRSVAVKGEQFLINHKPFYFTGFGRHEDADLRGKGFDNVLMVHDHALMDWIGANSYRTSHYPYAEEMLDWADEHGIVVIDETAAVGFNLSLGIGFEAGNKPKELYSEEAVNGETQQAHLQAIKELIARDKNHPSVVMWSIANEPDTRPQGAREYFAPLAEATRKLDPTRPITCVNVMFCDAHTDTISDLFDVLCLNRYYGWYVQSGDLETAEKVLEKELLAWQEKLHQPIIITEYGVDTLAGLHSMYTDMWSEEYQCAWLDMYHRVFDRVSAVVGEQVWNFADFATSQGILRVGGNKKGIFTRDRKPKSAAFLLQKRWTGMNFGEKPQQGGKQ
# Sequence of EcGUS (Escherichia coli GUS) (P05804 whole entry): as above
# T1 sequence (P05804 whole entry): as above
smiles,measurement,setting,value
"O=C(O)[C@H]1CNC[C@@H](O)[C@@H]1O [Inhibitor 1, Uronic isofagomine]",Ki,[1],0.016 µM
same,Ki,"[1]; 50 mM HEPES pH 7.5, 37 °C",0.016 ± 0.002 µM
same,Ki,"[1]; source data of Table 1, from plot of apparent Km against [inhibitor] (μM)",0.0155 µM
same,Ki,[2],7.4 nM
same,1/v,[2]; [4],0.8126 and 0.846 and 0.7526
same,GUS activity (hydrolysis rate of MUG),[2]; [4],0.2748 and 0.264 and 0.2967
same,1/v,[2]; [5],0.5186 and 0.5024 and 0.468
same,GUS activity (hydrolysis rate of MUG),[2]; [5],0.4306 and 0.4444 and 0.4771
same,1/v,[2]; [6],0.3591 and 0.3484 and 0.3239
same,GUS activity (hydrolysis rate of MUG),[2]; [6],0.6217 and 0.6409 and 0.6893
same,1/v,[2]; [7],0.2793 and 0.2899 and 0.2702
same,GUS activity (hydrolysis rate of MUG),[2]; [7],0.7996 and 0.7703 and 0.8263
same,1/v,[2]; [8],1.155 and 1.089 and 1.043
same,GUS activity (hydrolysis rate of MUG),[2]; [8],0.1934 and 0.2051 and 0.2141
same,1/v,[2]; [9],0.6535 and 0.6591 and 0.6116
same,GUS activity (hydrolysis rate of MUG),[2]; [9],0.3417 and 0.3388 and 0.3651
same,1/v,[2]; [10],0.4306 and 0.4268 and 0.4023
same,GUS activity (hydrolysis rate of MUG),[2]; [10],0.5186 and 0.5232 and 0.555
same,1/v,[2]; [11],0.3354 and 0.3372 and 0.306
same,GUS activity (hydrolysis rate of MUG),[2]; [11],0.6657 and 0.6621 and 0.7298
same,1/v,[2]; [12],1.814 and 1.753 and 1.625
same,GUS activity (hydrolysis rate of MUG),[2]; [12],0.1231 and 0.1273 and 0.1374
same,1/v,[2]; [13],0.8901 and 1.007 and 0.9854
same,GUS activity (hydrolysis rate of MUG),[2]; [13],0.2509 and 0.2218 and 0.2266
same,1/v,[2]; [14],0.5908 and 0.5953 and 0.5748
same,GUS activity (hydrolysis rate of MUG),[2]; [14],0.3779 and 0.3751 and 0.3885
same,1/v,[2]; [15],0.423 and 0.431 and 0.4024
same,GUS activity (hydrolysis rate of MUG),[2]; [15],0.5279 and 0.5181 and 0.5549
same,1/v,[2]; [16],3.2999 and 3.135 and 3.11
same,GUS activity (hydrolysis rate of MUG),[2]; [16],0.06767 and 0.07122 and 0.07181
same,1/v,[2]; [17],1.905 and 1.744 and 1.761
same,GUS activity (hydrolysis rate of MUG),[2]; [17],0.1172 and 0.128 and 0.1268
same,1/v,[2]; [18],0.9882 and 1.034 and 0.9748
same,GUS activity (hydrolysis rate of MUG),[2]; [18],0.226 and 0.216 and 0.2291
same,1/v,[2]; [19],0.6379 and 0.6438 and 0.6305
same,GUS activity (hydrolysis rate of MUG),[2]; [19],0.35 and 0.3468 and 0.3542
same,Kd,EcGUS; [20],20 ± 2 nM
same,ΔG,EcGUS; [20],–10.63 ± 0.075 kcal/mol
same,—TΔS,EcGUS; [20],–1.51 ± 0.20 kcal/mol
same,Kd,EcGUS; [21],60 ± 1 nM
same,ΔG,EcGUS; [21],–9.89 ± 0.01 kcal/mol
same,ΔH,EcGUS; [21],–9.48 ± 0.29 kcal/mol
same,—TΔS,EcGUS; [21],–0.41 ± 0.30 kcal/mol
same,Kd,BdGUS,300 ± 60 nM
same,ΔG,BdGUS,–8.91 ± 0.13 kcal/mol
same,ΔH,BdGUS,–10.47 kcal/mol
same,—TΔS,BdGUS,1.56 ± 0.37 kcal/mol
"CCCCCCCCC[C@@H]1NC[C@@H](O)[C@H](O)[C@H]1C(=O)O [Inhibitor 4, C6-nonyl UIFG]",Ki,[1],0.0045 µM
same,Ki,"[1]; 50 mM HEPES pH 7.5, 37 °C",0.0045 ± 0.0007 µM
same,Ki,[2],440 nM
same,1/v,[2]; [22],0.1206 and 0.1178 and 0.1199
same,GUS activity (hydrolysis rate of MUG),[2]; [22],1.851 and 1.896 and 1.862
same,1/v,[2]; [23],0.09548 and 0.09298 and 0.09392
same,GUS activity (hydrolysis rate of MUG),[2]; [23],2.339 and 2.4016 and 2.377
same,1/v,[2]; [24],0.06502 and 0.06335 and 0.06665
same,GUS activity (hydrolysis rate of MUG),[2]; [24],3.434 and 3.525 and 3.35
same,1/v,[2]; [25],0.04786 and 0.04662 and 0.0491
same,GUS activity (hydrolysis rate of MUG),[2]; [25],4.665 and 4.79 and 4.548
same,1/v,[2]; [26],0.1451 and 0.1465 and 0.1466
same,GUS activity (hydrolysis rate of MUG),[2]; [26],1.539 and 1.524 and 1.523
same,1/v,[2]; [27],0.1144 and 0.1135 and 0.113
same,GUS activity (hydrolysis rate of MUG),[2]; [27],1.951 and 1.968 and 1.976
same,1/v,[2]; [28],0.07405 and 0.07448 and 0.0755
same,GUS activity (hydrolysis rate of MUG),[2]; [28],3.015 and 2.998 and 2.957
same,1/v,[2]; [29],0.05196 and 0.05207 and 0.05497
same,GUS activity (hydrolysis rate of MUG),[2]; [29],4.298 and 4.288 and 4.062
same,1/v,[2]; [30],0.2039 and 0.1961 and 0.2029
same,GUS activity (hydrolysis rate of MUG),[2]; [30],1.095 and 1.138 and 1.1007
same,1/v,[2]; [31],0.1529 and 0.1514 and 0.1472
same,GUS activity (hydrolysis rate of MUG),[2]; [31],1.4607 and 1.475 and 1.517
same,1/v,[2]; [32],0.09524 and 0.09338 and 0.09505
same,GUS activity (hydrolysis rate of MUG),[2]; [32],2.344 and 2.391 and 2.349
same,1/v,[2]; [33],0.06409 and 0.06318 and 0.06381
same,GUS activity (hydrolysis rate of MUG),[2]; [33],3.484 and 3.534 and 3.499
same,1/v,[2]; [34],0.286 and 0.2822 and 0.2849
same,GUS activity (hydrolysis rate of MUG),[2]; [34],0.7809 and 0.7911 and 0.7837
same,1/v,[2]; [35],0.2142 and 0.2187 and 0.2123
same,GUS activity (hydrolysis rate of MUG),[2]; [35],1.043 and 1.021 and 1.052
same,1/v,[2]; [36],0.1255 and 0.1264 and 0.1244
same,GUS activity (hydrolysis rate of MUG),[2]; [36],1.779 and 1.767 and 1.7944
same,1/v,[2]; [37],0.08292 and 0.0812 and 0.08265
same,GUS activity (hydrolysis rate of MUG),[2]; [37],2.693 and 2.75 and 2.702
same,ΔH,EcGUS; [20],close to zero
same,"ΔΔH relative to 2 (ΔΔH2–3, ΔΔH2–4)",EcGUS; phosphate buffer,+0.99 kcal mol^−1
same,"–TΔΔS relative to 2 (–TΔΔS2–3, –TΔΔS2–4)",EcGUS; phosphate buffer,-1.34 kcal/mol
same,Kd,EcGUS; [21],160 ± 40 nM
same,ΔG,EcGUS; [21],–9.30 ± 0.13 kcal/mol
same,ΔH,EcGUS; [21],–3.00 ± 0.02 kcal/mol
same,—TΔS,EcGUS; [21],–6.31 ± 0.15 kcal/mol
same,IC50,[3],3.69 nM
